# Measured values published in patent US12133900B2, “Synthesis and composition of amino acid linking groups conjugated to compounds used for the targeted imaging of tumors” (Purdue Research Foundation, priority 2013, dated 2024).
# Entries after “also recorded” stand apart in the source; their conditions may differ.
# How the values were obtained:
# [1] = system: FR-positive L1210A tumors; assay: Imaging and biodistribution, L1210A metastatic model (OTL38); type: in vivo, mice; settings: 2 nmol, 2 h
# Protocol: One million (1×106) of either L1210A or MDA-MB231 cancer cells per mouse (cancer cells/mouse) were administered via tail vein injection into the mice. Tumor growth was monitored every other day using a Caliper IVIS Lumina II Imaging Station with Living Image 4.0 software (PerkinElmer Inc.).
# (§1) Following whole body imaging, animals were dissected and selected tissues (heart, lung, liver, spleen, kidneys, stomach, small intestine, large intestine, muscle, skin, and tumor) were analyzed for fluorescence activity using IVIS imager using same settings as in whole body imaging.
# [2] = system: FR-positive SKOV3 tumor xenografts; assay: Imaging and biodistribution, SKOV3 ovarian xenograft; type: in vivo, mice; settings: 2 nmol, 2 h
# Protocol: (§2) Seven-week-old female nu/nu mice were inoculated subcutaneously with KB (1.0×10^6/mouse in RPM11640 medium), IGROV (5.0×10^6/mouse in 50% high concentrated matrigel+RPM11640 medium), SKOV3 (5.0×10^6/mouse in RPM11640 medium), OVCAR3 (5.0×10^6/mouse in RPM11640 medium), MDA-MB231 (1.0×10^6/mouse in RPM11640 medium), M109 (1.0×10^6/mouse in RPM11640 medium) or A549 cells (2.0×10^6/mouse in RPM11640 medium) on the shoulder. Growth of the tumors was measured in perpendicular directions every 2 days using a caliper (body weights were monitored on the same schedule), and the volumes of the tumors were calculated as 0.5×L×W^2 (L=longest axis and W=axis perpendicular to L in millimeters). Once tumors reached approximately 300-400 mm3 in volume, animals (3-5 mice/group) were intravenously injected with the compound of interest in PBS (for dose escalation in KB tumor model: 0.3-90 nmol, for time dependent in KB tumor model: 2 or 10 nmol, and for general whole body imaging and biodistribution for all tumor models: 2 nmol, in 100 μL in PBS per mouse). For whole body imaging and biodistribution studies, animals were euthanized 2 hours after administration of the compound of interest by CO2 asphyxiation. For time dependent studies, animals were imaged under anesthesia using isoflurane. Whole body imaging (intact tumor) experiments was then performed using a Caliper IVIS Lumina II Imaging Station with Living Image 4.0 software (PerkinElmer Inc, MA).
# as §1
# [3] = Chemical and optical properties of NIR dyes (Table 1); type: physicochemical
# FR-positive M109 tumors = assay: Imaging and biodistribution, M109 metastatic model; type: in vivo, mice; settings: 2 nmol, 2 h
# Protocol: as §2, with “For whole body imaging and biodistribution studies, animals were euthanized 2 hours after administration of the compound of interest by CO2 asphyxiation. For time dependent studies, animals were imaged under anesthesia using isoflurane. Whole body imaging (intact tumor) experiments was then performed using a Caliper IVIS Lumina II Imaging Station with Living Image 4.0 software (PerkinElmer Inc, MA).” left out
# as §1
# [4] = system: FR-positive MDA-MB 231 orthotopic tumors; assay: Imaging and biodistribution, MDA-MB 231 orthotopic model; type: in vivo, mice; settings: 2 nmol, 2 h
# Protocol: Breast cancer was developed by implanting breast cancer cells in the […] fat pad of the mouse.
# as §1
# [5] = system: FR-positive SKOV3 orthotopic tumor; assay: Imaging and biodistribution, SKOV3 ovarian orthotopic model; type: in vivo, mice; settings: 2 nmol, 2 h
# Protocol: Ovarian cancer was developed through surgical implantation of ovarian cancer cell lines near the ovarian bursa of the mouse. Seven-week-old female athymic nude mice were given 1-5% isoflurane for anesthesia and subcutaneous injection of 5 mg/kg meloxicam preoperatively for analgesia. The mice were placed dorsal side up and washed above the right ovary (just lateral to the epaxial muscles and ˜1.15 cm caudal to the rib cage) with a chlorhexidine scrub to ensure a sterile area for incision. After an insertion was made using scalpel through the skin, the peritoneal lining was lifted to make a small incision using a scissor and widened using a forceps. The ovarian fat pad was carefully lifted out and placed on a wetted gauze pad adjacent to the incision. Ovarian cancer cells (50,000 cells in 5 μL) were injected between the bursa and the ovary using a 30 gage needle. After placing the ovarian fat pad back into the body cavity, the body wall was closed using 3-0 or 4-0 vicryl and the skin was closed using staples.
# as §1
# [6] = system: FR-positive IGROV tumor xenografts; assay: Imaging and biodistribution, IGROV ovarian xenograft; type: in vivo, mice; settings: 2 nmol, 2 h
# Protocol: as §2, §1
# FR-alpha and beta = settings: cited from earlier work
# [7] = system: FR-positive MDA-MB 231 tumor xenografts; assay: Imaging and biodistribution, MDA-MB 231 breast xenograft; type: in vivo, mice
# Protocol: as §2, §1
compound,measurement,setting,value
"CC1(C)C(/C=C/C2=C(Oc3ccc(C[C@H](NC(=O)c4ccc(NCc5cnc6nc(N)[nH]c(=O)c6n5)cc4)C(=O)[O-])cc3)C(=C/C=C3\N(CCCCS(=O)(=O)[O-])c4ccc(S(=O)(=O)[O-])cc4C3(C)C)/CCC2)=[N+](CCCCS(=O)(=O)[O-])c2ccc(S(=O)(=O)[O-])cc21.[H+].[H+].[H+].[H+] [OTL-0038, Pte-Tyr-S0456]",tumor-to-normal tissue ratios,[1],excellent tumor-to-normal tissue ratios
same,whole body imaging: accumulation,[1],"accumulated mainly in the FR-positive L1210A tumors metastasize to the liver, lung and spleen"
same,ex-vivo tissue biodistribution,[2],highest fluorescence intensities were observed in FR-positive tumors and kidneys
same,tumor-to-normal tissue ratios,[2],excellent tumor-to-normal tissue ratios
same,whole body imaging: accumulation,[2],accumulated mainly in the FR-positive SKOV3 tumor xenografts
same,E,[3],272000 M⁻¹ cm⁻¹
same,Q (%),[3],15.6%
same,Stokes Shift (nm),[3],20 nm
same,λem (nm),[3],776 nm
same,λex (nm),[3],796 nm
same,tumor-to-normal tissue ratios,FR-positive M109 tumors,excellent tumor-to-normal tissue ratios
same,whole body imaging: accumulation,FR-positive M109 tumors,"accumulated mainly in the FR-positive M109 tumors metastasize to the liver, lung and spleen"
same,ex-vivo tissue biodistribution,[4],highest fluorescence intensities were observed in FR-positive tumors and kidneys
same,tumor-to-normal tissue ratios,[4],excellent tumor-to-normal tissue ratios
same,whole body imaging: accumulation,[4],accumulated mainly in the FR-positive MDA-MB 231 orthotopic tumors
same,accumulation (tissue biodistribution),[5],accumulated mainly in the ovary with FR-positive SKOV3 orthotopic tumor
same,tumor-to-normal tissue ratios,[5],excellent tumor-to-normal tissue ratios
same,ex-vivo tissue biodistribution,[6],highest fluorescence intensities were observed in FR-positive tumors and kidneys
same,tumor-to-normal tissue ratios,[6],excellent tumor-to-normal tissue ratios
same,whole body imaging: accumulation,[6],accumulated mainly in the FR-positive IGROV tumor xenografts
same,affinity for FR-alpha versus beta,FR-alpha and beta,binds to FR-alpha and beta with same affinity
same,ex-vivo tissue biodistribution,"[7]; 2 nmol, 2 h",highest fluorescence intensities were observed in FR-positive tumors and kidneys
same,tumor-to-normal tissue ratios,"[7]; 2 nmol, 2 h",excellent tumor-to-normal tissue ratios
same,whole body imaging: accumulation,"[7]; 2 nmol, 2 h, listed as OTL38",accumulated mainly in the FR-positive MDA-MB 231 tumor xenografts; also recorded: mainly accumulated in FR-positive MDA-MB 231 tumor xenografts and kidneys
same,accumulation in tumor and kidneys after blocking the FR,"[7]; 100 fold excess of folic acid prior to 2 nmol, 2 h",inhibited by the administration of 100 fold excess of folic acid
same,specificity for FR (conclusion),[7]; blocking with excess folic acid,highly specific for FR
